Data from patent US10562909B2, “Fused quadracyclic compounds, compositions and uses thereof” (Tabomedex Biosciences, LLC, priority 2016, dated 2020).

Each molecule was assayed against MAPKAPK2 (Homo sapiens, UniProt P49137) (assay: MK2 Enzymatic Assay). Details: 0.5 nM MAPKAPK2, 3 μM ATP, 2 μM Ser/Thr4 peptide, 23° C., values given as concentration bins.
Assay type: biochemical
How it was run: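 MAPKAPK2 (2× stock 1 nM) and peptide substrate (2× 4 μM) were preincubated 20 min, then started with ATP (2× stock 6 μM) for 120 min. After 120 min development, coumarin/fluorescein emission ratio gave percent phosphorylation against 0% and 100% phosphopeptide controls.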

MAPKAPK2, sequence (P49137 whole entry, species assumed): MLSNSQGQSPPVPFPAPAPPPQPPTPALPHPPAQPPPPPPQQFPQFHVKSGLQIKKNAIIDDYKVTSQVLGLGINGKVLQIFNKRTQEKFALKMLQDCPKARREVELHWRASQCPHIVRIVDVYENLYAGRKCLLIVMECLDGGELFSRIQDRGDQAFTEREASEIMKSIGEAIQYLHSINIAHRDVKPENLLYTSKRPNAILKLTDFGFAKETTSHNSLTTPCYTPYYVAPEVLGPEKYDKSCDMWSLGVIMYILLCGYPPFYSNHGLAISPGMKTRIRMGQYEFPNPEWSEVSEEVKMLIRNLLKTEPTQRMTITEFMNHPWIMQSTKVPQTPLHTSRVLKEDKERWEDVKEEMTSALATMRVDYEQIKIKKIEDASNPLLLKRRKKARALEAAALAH

Structure (SMILES) | IC50 [nM]
CN(C)C[C@H]1CN(c2ccc3c(n2)Cn2cc(-c4ccc(C#N)cc4)cc2-c2nccn2-3)C[C@@H]1O [Compound 306, 4-(7-((3S,4R)-3-((dimethylamino)methyl)-4-hydroxypyrrolidin-1-yl)-9H-imidazo[2,1-c]pyrido[3,2-e]pyrrolo[1,2-a][1,4]diazepin-12-yl)benzonitrile] | < 50
C[C@H](CO)NC[C@H]1CCN(c2ccc3c(c2)Cn2cc(-c4ccc(C#N)cc4)cc2-c2nncn2-3)C1 [Compound 85, 4-(7-((R)-3-((((R)-1-hydroxypropan-2-yl)amino)methyl)pyrrolidin-1-yl)-9H-benzo[e]pyrrolo[1,2-a][1,2,4]triazolo[3,4-c][1,4]diazepin-12-yl)benzonitrile] | < 50
Cc1nnc2n1-c1ccc(N3CC[C@@H](CN(C)C)C3)cc1Cn1cc(-c3ccc(C#N)cc3)cc1-2 [Compound 228, 4-(7-((S)-3-((dimethylamino)methyl)pyrrolidin-1-yl)-3-methyl-9H-benzo[e]pyrrolo[1,2-a] [1,2,4]triazolo[3,4-c][1,4]diazepin-12-yl)benzonitrile] | 50 to 100
CC(C)(CO)NC[C@@H]1CCN(c2ccc3c(c2)Cn2cc(-c4ccc(F)cc4)cc2-c2ncnn2-3)C1 [Compound 425, (S)-2-(((1-(12-(4-fluorophenyl)-9H-benzo[e]pyrrolo[1,2-a][1,2,4]triazolo[5,1-c][1,4]diazepin-7-yl)pyrrolidin-3-yl)methyl)amino)-2-methylpropan-1-ol] | 50 to 100
N#Cc1ccc(-c2cc3n(c2)Cc2nc(N4CC[C@@H](CN5CCC(O)CC5)C4)ccc2-n2ccnc2-3)cc1 [Compound 308, (S)-4-(7-(3-((4-hydroxypiperidin-1-yl)methyl)pyrrolidin-1-yl)-9H-imidazo[2,1-c]pyrido[3,2-e]pyrrolo[1,2-a][1,4]diazepin-12-yl)benzonitrile] | < 50
CNCC1CN(c2ccc3c(c2)Cn2cc(-c4ccc(C#N)cc4)cc2-c2nncn2-3)C1 [Compound 11, 4-(7-(3-((methylamino)methyl)azetidin-1-yl)-9H-benzo[e]pyrrolo[1,2-a][1,2,4]triazolo[3,4-c][1,4]diazepin-12-yl)benzonitrile] | 50 to 100
CN[C@@H]1CCN(c2ccc3c(c2)Cn2c(cc(-c4ccc(C#N)cc4)c2Cl)-c2nncn2-3)C1 [Compound 166, (R)-4-(11-chloro-7-(3-(methylamino)pyrrolidin-1-yl)-9H-benzo[e]pyrrolo[1,2-a][1,2,4]tri-azolo[3,4-c][1,4]diazepin-12-yl)benzonitrile] | 100 to 200
COCc1cnc2n1-c1ccc(N3CC[C@@H](N(C)C)C3)cc1Cn1cc(-c3ccc(C#N)cc3)cc1-2 [Compound 278, 4-(7-((R)-3-(dimethylamino)pyrrolidin-1-yl)-3-(methoxymethyl)-9H-benzo[e]imidazo[2,1-c]pyrrolo[1,2-a][1,4]diazepin-12-yl)benzonitrile] | < 50
Cc1nnc2n1-c1ccc(N3CC[C@H](CN(C)C)C3)cc1Cn1cc(-c3ccc(C#N)cc3)cc1-2 [Compound 229, 4-(7-((R)-3-((dimethylamino)methyl)pyrrolidin-1-yl)-3-methyl-9H-benzo[e]pyrrolo[1,2-a] [1,2,4]triazolo[3,4-c][1,4]diazepin-12-yl)benzonitrile] | 50 to 100
N#Cc1ccc(-c2cc3n(c2)Cc2cc(N4CCC5(CNC5)C4)ncc2-n2cnnc2-3)cc1 [Compound 318, 4-(7-(2,6-diazaspiro[3.4]octan-6-yl)-9H-pyrido[3,4-e]pyrrolo[1,2-a][1,2,4]triazolo[3,4-c][1,4]diazepin-12-yl)benzonitrile] | 100 to 200
CNCC1CN(c2cc3c(cn2)-n2cnnc2-c2cc(-c4ccc(C#N)cc4)cn2C3)C1 [Compound 315, 4-(7-(3-((methylamino)methyl)azetidin-1-yl)-9H-pyrido[3,4-e]pyrrolo[1,2-a][1,2,4]triazolo[3,4-c][1,4]diazepin-12-yl)benzonitrile] | 100 to 200
Cc1cc(N2C[C@@H](CN(C)C)[C@H](O)C2)cc2c1-n1ncnc1-c1cc(-c3ccc(F)cc3)cn1C2 [Compound 513, (3S,4R)-4-((dimethylamino)methyl)-1-(12-(4-fluorophenyl)-5-methyl-9H-benzo[e]pyrrolo[1,2-a][1,2,4]triazolo[5,1-c][1,4]diazepin-7-yl)pyrrolidin-3-ol] | 100 to 200
CN[C@H]1CCN(c2ccc3c(c2)Cn2cc(-c4ccc(F)cc4F)cc2-c2ncnn2-3)C1 [Compound 451, (S)-1-(12-(2,4-difluorophenyl)-9H-benzo[e]pyrrolo[1,2-a][1,2,4]triazolo[5,1-c][1,4]diazepin-7-yl)-N-methylpyrrolidin-3-amine] | 100 to 200
c1ccc(-c2cc3n(c2)Cc2cc(N4CCC5(CNC5)C4)ccc2-n2ccnc2-3)cc1 [Compound 462, 12-phenyl-7-(2,6-diazaspiro[3.4]octan-6-yl)-9H-benzo[e]imidazo[2,1-c]pyrrolo[1,2-a][1,4]diazepine] | < 50
Fc1ccc(-c2cc3n(c2)Cc2cc(N4CCC5(CNC5)C4)ccc2-n2cnnc2-3)cc1 [Compound 336, 12-(4-fluorophenyl)-7-(2,6-diazaspiro[3.4]octan-6-yl)-9H-benzo[e]pyrrolo[1,2-a][1,2,4] triazolo[3,4-c][1,4]diazepine] | < 50

Other lines, results leading:

IC50 [nM] | Structure (SMILES)
< 50 | CNC[C@@H]1CN(c2ccc3c(c2)Cn2cc(-c4ccc(F)cc4)cc2-c2nccn2-3)C[C@@H]1F [Compound 474, 1-((3R,4R)-4-fluoro-1-(12-(4-fluorophenyl)-9H-benzo[e]imidazo[2,1-c]pyrrolo[1,2-a][1,4]diazepin-7-yl)pyrrolidin-3-yl)-N-methylmethanamine]
< 50 | CN(C)C[C@@H]1CN(c2ccc3c(c2)Cn2cc(-c4ccc(F)cc4)cc2-c2ncnn2-3)C[C@@H]1O [Compound 416, (3R,4R)-4-((dimethylamino)methyl)-1-(12-(4-fluorophenyl)-9H-benzo[e]pyrrolo[1,2-a][1,2,4]triazolo[5,1-c][1,4]diazepin-7-yl)pyrrolidin-3-ol]
50 to 100 | O=C(O)C1CCN(CC2CCN(c3ccc4c(c3)Cn3cc(-c5ccc(F)cc5)cc3-c3nccn3-4)C2)CC1 (stereo not shown) [Compound 480, 1-((1-(12-(4-fluorophenyl)-9H-benzo[e]imidazo[2,1-c]pyrrolo[1,2-a][1,4]diazepin-7-yl)pyrrolidin-3-yl)methyl)piperidine-4-carboxylic acid]
< 50 | N#Cc1ccc(-c2cc3n(c2)Cc2cc(N4CC[C@H](CN5CCC(O)CC5)C4)ccc2-n2ccnc2-3)cc1 [Compound 143, (R)-4-(7-(3-((4-hydroxypiperidin-1-yl)methyl)pyrrolidin-1-yl)-9H-benzo[e]imidazo[2,1-c]pyrrolo[1,2-a][1,4]diazepin-12-yl)benzonitrile]
< 50 | CN(C)C[C@@H]1CN(c2ccc3c(n2)Cn2cc(-c4ccc(C#N)cc4)cc2-c2nccn2-3)C[C@H]1O [Compound 307, 4-(7-((3R,4S)-3-((dimethylamino)methyl)-4-hydroxypyrrolidin-1-yl)-9H-imidazo[2,1-c]pyrido[3,2-e]pyrrolo[1,2-a][1,4]diazepin-12-yl)benzonitrile]
50 to 100 | CN(C)C[C@H]1CN(c2ccc3c(c2)Cn2cc(-c4ccc(C#N)cc4)cc2-c2nccn2-3)C[C@H]1O [Compound 128, 4-(7-((3S,4S)-3-((dimethylamino)methyl)-4-hydroxypyrrolidin-1-yl)-9H-benzo[e]imidazo[2,1-c]pyrrolo[1,2-a][1,4]diazepin-12-yl)benzonitrile]
< 50 | C[C@H](CO)NC[C@H]1CCN(c2ccc3c(c2)Cn2cc(-c4ccc(F)cc4)cc2-c2ncnn2-3)C1 [Compound 420, (R)-2-((((R)-1-(12-(4-fluorophenyl)-9H-benzo[e]pyrrolo[1,2-a][1,2,4]triazolo[5,1-c][1,4]diazepin-7-yl)pyrrolidin-3-yl)methyl)amino)propan-1-ol]
50 to 100 | CN(C)C1CCN(c2ccc3c(c2)Cn2cc(-c4ccc(F)cc4)cc2-c2ncnn2-3)CC1 [Compound 428, 1-(12-(4-fluorophenyl)-9H-benzo[e]pyrrolo[1,2-a][1,2,4]triazolo[5,1-c][1,4]diazepin-7-yl)-N,N-dimethylpiperidin-4-amine]
< 50 | O[C@H]1CN(c2ccc3c(c2)Cn2cc(-c4ccc(F)cc4)cc2-c2nccn2-3)C[C@@H]1CNC1CC1 [Compound 473, (3R,4S)-4-((cyclopropylamino)methyl)-1-(12-(4-fluorophenyl)-9H-benzo[e]imidazo[2,1-c]pyrrolo[1,2-a][1,4]diazepin-7-yl)pyrrolidin-3-ol]
100 to 200 | OC[C@@H]1CNC[C@H]1Nc1ccc2c(c1)Cn1cc(-c3ccc(F)cc3)cc1-c1nccn1-2 (relative stereo) [Compound 495, (Trans-4-((12-(4-fluorophenyl)-9H-benzo[e]imidazo[2,1-c]pyrrolo[1,2-a][1,4]diazepin-7-yl)amino)pyrrolidin-3-yl)methanol]
< 50 | CN(C)[C@H]1CCN(c2ccc3c(c2)Cn2cc(-c4ccc(F)cc4)cc2-c2nccn2-3)C1 [Compound 380, (S)-1-(12-(4-fluorophenyl)-9H-benzo[e]imidazo[2,1-c]pyrrolo[1,2-a][1,4]diazepin-7-yl)-N,N-dimethylpyrrolidin-3-amine]
50 to 100 | NC[C@H]1CCN(c2ccc3c(c2)Cn2cc(-c4ccc(F)cc4)cc2-c2ncnn2-3)C1 [Compound 496, (R)-(1-(12-(4-fluorophenyl)-9H-benzo[e]pyrrolo[1,2-a][1,2,4]triazolo[5,1-c][1,4]diazepin-7-yl)pyrrolidin-3-yl)methanamine]
< 50 | OC1CCN(C[C@@H]2CCN(c3ccc4c(c3)Cn3cc(-c5ccc(F)cc5)cc3-c3nccn3-4)C2)CC1 [Compound 361, (S)-1-((1-(12-(4-fluorophenyl)-9H-benzo[e]imidazo[2,1-c]pyrrolo[1,2-a][1,4]diazepin-7-yl)pyrrolidin-3-yl)methyl)piperidin-4-ol]
